Experimental data from patent publication US11389456B2, “Compounds and methods for treating oxalate-related diseases” (OxaluRx, Inc., priority 2018, dated 2022).
≈ marks a conversion by molar mass, not a printed value. Where two headings read alike, the source gives them in different places.

Columns and labels:
[1] = tested on: CD1 mice administered 1% ethylene glycol; assay: Mouse ethylene glycol model of hyperoxaluria, urinary oxalate; format: in vivo; settings: mice, once-daily oral gavage, 100 mg/kg
Description: Mouse Models of Hyperoxaluria for Determining In Vivo Efficacy of hGOX Inhibitors
Male CD1 mice, 6-8 weeks of age (Charles River Labs, Wilmington, Mass.) were administered 1% ethylene glycol ad libitum their drinking water for 14 days. The mice were housed in individual cages, fed ad libitum and 24-h urine collections were initiated on days 1, 5, 9 and 14 using a 15-rack metabolic cage system equipped with a CCS2000 chiller system (Hatteras Instruments, Cary, N.C.) to maintain the samples at 4° C. during collection. Hydrochloric acid (100 μL of 6N) added to the collection vials to acidify the samples and prevent degradation of oxalate before evaluation.
Urine samples were maintained at 4° C. and urinary oxalate concentrations were determined within 24 hours of sample collection using a Trinity Biotech oxalate assay kit (Catalog #591-D). The assay was an enzymatic method based on the oxidation of oxalate by oxalate oxidase followed by measurement of hydrogen peroxide (H2O2) produced during the peroxidase-catalyzed reaction. Briefly, a 1-mL aliquot of each sample was diluted with an equal volume of assay diluent to bring the pH to between 5.0 and 7.0, then placed into purifier tubes (provided in the kit) and mixed for 5 min. The tubes were centrifuged for 5 min at 2000 rpm (1500×g) and the supernatants collected for the oxalate assay. The procedure was specific for oxalate with no special equipment and was easily adaptable for clinical automated analyzers. Each assay included a standard curve prepared with a standardized oxalate control sample (included in the kit) and internal assay control samples for both a normal (0.2-0.3 mmol/L) and elevated (0.86-1.21 mmol/L) level of oxalate.
To evaluate in vivo efficacy, mice were dosed by once-daily oral gavage of compound I-002 in an appropriate vehicle (e.g., phosphate-buffered saline, pH 7.4) at a dosage of 100 mg/kg. […]
The effect of example I-001 in the ethylene glycol model using CD-1 mice was evaluated by twice-daily, oral gavage dosing at 50 mg/kg for 6 days (days 5-11). […]

[2] = biological target: glycolate oxidase (GOX) in HepaRG-CAR cells (Homo sapiens (Human), UniProt Q9UJM8); assay: HepaRG-CAR cell-based assay for quantitation of glycolate oxidase inhibition (cellular glycolate flux, GC-MS)
glycolate oxidase (GOX) in HepaRG-CAR cells, sequence (Q9UJM8 whole entry): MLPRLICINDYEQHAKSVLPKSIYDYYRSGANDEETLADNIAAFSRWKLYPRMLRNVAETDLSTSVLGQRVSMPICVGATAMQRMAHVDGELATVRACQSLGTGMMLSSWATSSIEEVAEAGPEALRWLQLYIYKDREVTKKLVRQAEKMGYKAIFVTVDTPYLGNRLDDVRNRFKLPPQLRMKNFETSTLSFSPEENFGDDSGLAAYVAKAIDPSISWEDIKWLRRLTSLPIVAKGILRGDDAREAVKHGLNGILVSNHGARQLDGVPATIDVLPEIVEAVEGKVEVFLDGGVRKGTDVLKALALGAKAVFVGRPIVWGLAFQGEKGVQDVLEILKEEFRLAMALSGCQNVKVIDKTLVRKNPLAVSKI

[3] = Solubility in phosphate buffered saline (PBS), pH 7.4; format: physicochemical; settings: phosphate buffer (PBS), aqueous buffer, kinetic from dmso stock; phosphate buffered saline pH 7.4, 1% DMSO, 1 hour shaking at room temperature
Outline: (§1)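 DMSO stock (10 mM) diluted into 100 mM phosphate buffer pH 7.4, or into deionized distilled water for the aqueous assay, at 1% final DMSO and shaken 1 h at room temperature. After centrifugation, supernatants quantified by LC-MS/MS against a calibration curve with internal standard.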

[4] = biological target: recombinant full-length human hydroxyacid oxidase 1 (HAO1), the equivalent of hGOX (Homo sapiens (Human), UniProt Q9UJM8); assay: In-vitro human glycolate oxidase (hGOX) assay (Amplex red/HRP fluorescence); format: biochemical
recombinant full-length human hydroxyacid oxidase 1 (HAO1), the equivalent of hGOX, sequence (Q9UJM8 whole entry): as above
Description: Biological Activity Assay: In-Vitro Human Glycolate Oxidase (hGOX) Assay
The in-vitro glycolate oxidase assay was performed using recombinant full-length human hydroxyacid oxidase 1 (HAO1), the equivalent of hGOX. […] Purified HAO1 was dissolved in assay buffer consisting of 10 mM NaCl, 110 mM KCl, 2 mM MgCl2, 50 mM HEPES (pH 7.4) and 0.01% Triton™ X-100.

[5] = Protein binding (plasma equilibrium dialysis); format: in vitro ADME; settings: 5 hours at 37° C.; for fraction unbound at 5 h, 1 μM: read-out: Protein Binding Fraction Bound (converted)
Outline: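 Compound spiked into plasma at 1 μM final (0.2% DMSO) and dialysed against phosphate buffer for 5 hours at 37 °C with shaking. Donor and receiver samples, matrix-matched and acetonitrile-quenched with internal standard, quantified by LC/MS/MS alongside 0-hour plasma samples.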

[6] = Stability in human plasma; format: in vitro ADME; settings: read-out: Plasma Stability T1/2
Outline: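 Pooled human plasma (pH 7.4-8) at 37° C, test compound spiked from a 0.02 mM solution in phosphate buffer with 0.5% BSA. Samples taken at 0, 5, 15, 30, 45 and 60 min, quenched with acetonitrile containing internal standard, and remaining compound measured by LC/MS.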

[7] = Metabolic stability in human liver microsomal preparation; format: in vitro ADME; settings: pH 7.4, human liver microsomes, NADPH, 37° C.; for half-life at 1 μM: 0-45 min, read-out: Metabolic Stability t1/2
Outline: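 Compound at 1.5 μM with 0.75 mg/mL human liver microsomes (concentrations before NADPH addition) in 0.1 M potassium phosphate, 1 mM EDTA, pH 7.4 was preincubated 5 min at 37 °C, then started with NADPH. Samples at 0, 5, 15, 30 and 45 min were quenched with acetonitrile/internal standard and analysed by LC/MS.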

[8] = Solubility in aqueous solution (deionized, distilled water); format: physicochemical; settings: kinetic from dmso stock, 1% DMSO, read-out: Aqueous Solubility H2O
Outline: as §1

[9] = HepaRG-CAR cells, 500 μM glycolate, 48 hours incubation, read-out: IC50

SMILES	reduction in urinary oxalate [1]	IC50 [2, 9] [nM]	solubility at 1 h [3] [µM]	IC50 [4] [nM]	recovery at 5 h, 1 μM [5] [%]	half-life at 2 μM [6] [h]	CLint scaled at 1 μM [7] [mL/min/kg]	half-life at 1 μM [7] [h]	solubility at 1 h [8] [µM]	IC50 [2] [nM]	fraction unbound at 5 h, 1 μM [5]
CCOC(=O)c1nn[nH]c1Sc1ccc(Cl)cc1 [Example I-002, Ethyl 5-((4-chlorophenyl)thio)-1H-1,2,3-triazole-4-carboxylate]	statistically significant reduction										
Cc1cc(Oc2[nH]nnc2C(=O)O)ccc1Cl [Example I-258, 5-(4-Chloro-3-methylphenoxy)-1H-1,2,3-triazole-4-carboxylic acid]		300	95.8 (≈ 24.3 µg/mL)	44	110	1.05	< 0.15	> 83.3	93.5 (≈ 23.7 µg/mL)		
COc1ccc(-c2cccc(Oc3[nH]nnc3C(=O)O)c2)cc1 [Example I-250, 5-((4′-Methoxy-[1,1′-biphenyl]-3-yl)oxy)-1H-1,2,3-triazole-4-carboxylic acid]			110 (≈ 34.1 µg/mL)	25	98.8	2.43	8.95	3.24	99.4 (≈ 30.9 µg/mL)	> 5000	0.089
O=C(O)c1nn[nH]c1Oc1ccc(-c2ccccc2F)cc1 [Example I-174, 5-((2′-Fluoro-[1,1′-biphenyl]-4-yl)oxy)-1H-1,2,3-triazole-4-carboxylic acid]		3000	89.8 (≈ 26.9 µg/mL)	27	99.9	1.17	2.48	11.7	70.3 (≈ 21.1 µg/mL)		
O=C(O)c1nn[nH]c1Oc1ccc2ccccc2c1 [Example I-058, 5-(Naphthalen-2-yloxy)-1H-1,2,3-triazole-4-carboxylic acid]		2000	90.8 (≈ 23.2 µg/mL)	50	101	0.852	2.1	13.8	81.5 (≈ 20.8 µg/mL)		
O=C(O)c1nn[nH]c1Oc1ccc(-c2ccccc2)nc1 [Example I-263, 5-((6-Phenylpyridin-3-yl)oxy)-1H-1,2,3-triazole-4-carboxylic acid]		> 10000	106 (≈ 29.9 µg/mL)	141	111	1.51	2.48	11.7	99 (≈ 27.9 µg/mL)		0.014
O=C(O)c1nn[nH]c1Oc1cccc(-c2ccc(Cl)c(Cl)c2)c1 [Example I-255, 5-((3′,4′-Dichloro-[1,1′-biphenyl]-3-yl)oxy)-1H-1,2,3-triazole-4-carboxylic acid]		5000	97.1 (≈ 34 µg/mL)	6	102	3.35	< 0.15	> 83.3	81 (≈ 28.3 µg/mL)		
